From patent US7119229B2 (priority 2001, dated 2006)
Where two headings read alike, the source gives them in different places.

How the values were obtained:
[1] = system: ICR mice; assay: Acute (intravenous administration) toxicity assay; conditions: for Days for the test (death) 2: day 2; for Days for the test (death) Total: deaths/mice; for Days for the test (death) 1: day 1
[2] = system: WP2 uvrA strains (tryptophan auxotrophic strains); assay: Reverse mutation assay (Ames test), E. coli WP2 uvrA
Procedure: (§1) This assay is carried out to test mutagenicity of chemical substances using histidine auxotrophic strains that are one of Salmonella Typhimurium mutants. […] When various mutagens are added to the culture medium, only revertants generated by reverse mutation survive.
(§2) Ames test was carried out using […]. […] After incubation, the number of revertant colonies was counted. 3 plates were prepared for each test and the average was calculated.

[3] = system: ICR mice; assay: Oral administration toxicity assay; conditions: for Days for the test (death) Total: deaths/mice; for Days for the Test (death) 4: day 4
[4] = system: TA1537; assay: Reverse mutation assay (Ames test), TA1537
Procedure: as §1, §2

[5] = system: TA98
Procedure: as §1, §2

[6] = system: TA100
Procedure: as §1, §2

[7] = system: TA1535
Procedure: as §1, §2

[8] = system: BALB/c mouse spleen cell (responding) and DBA/2 mouse spleen cell (stimulating); format: cell-based
Procedure: MLR tests were carried out to determine the immunosuppressive effect of an immunosuppressive candidate material. When a responding cell (BALB/c mouse spleen cell) and a stimulating cell (DBA/2 mouse spleen cell) were cultured separately, the cells grew little. On the contrary, when the cells were simultaneously cultured, the cells were proliferated due to induction of an antigen-antibody reaction. The proliferated cells were treated with the immunosuppressive candidate material for measurement of the proliferation inhibitory extent.
After culturing for 72 hours at a CO2 incubator, a 20 μl MTS solution was added to each well, followed by further culturing for 2 to 4 hours and measuring OD at […] by using ELISA.

[9] = TA1525 (so in the source), 317.5 μg/Plate
[10] = TA1525 (so in the source), 625 μg/Plate
[11] = TA1525 (so in the source), 1250 μg/Plate
[12] = TA1525 (so in the source), 2500 μg/Plate
[13] = TA1525 (so in the source), 5000 μg/Plate
[14] = Positive control group, TA1537, 50 μg/Plate
[15] = Positive control group, TA100, 0.5 μg/Plate
[16] = Positive control group, TA1535, 0.5 μg/Plate

SMILES: COc1cc2c(c(OC)c1OC)-c1ccc(OC)c(=O)cc1[C@@H](NC(C)=O)CC2 [Colchicine]
- Days for the test (death) 2 ([1]; 2 mg/kg): 3
- Days for the Test (death) 3 ([1]; 2 mg/kg, day 3): 1
- Days for the test (death) 6 ([1]; 2 mg/kg, day 6): 1
- Days for the test (death) Total ([1]; 2 mg/kg): 5/5
- Days for the test (death) 1 ([1]; 5 mg/kg): 1
- Days for the test (death) 2 ([1]; 5 mg/kg): 4
- Days for the test (death) Total ([1]; 5 mg/kg): 5/5
- Days for the test (death) 1 ([1]; 10 mg/kg): 4
- Days for the test (death) 2 ([1]; 10 mg/kg): 1
- Days for the test (death) Total ([1]; 10 mg/kg): 5/5
- Colony/Plate S-9 Mixture (+) ([2]; 317.5 μg/Plate): 11 Colony/Plate
- Colony/Plate S-9 Mixture (−) ([2]; 317.5 μg/Plate): 10 Colony/Plate
- Colony/Plate S-9 Mixture (+) ([2]; 625 μg/Plate): 14 Colony/Plate
- Colony/Plate S-9 Mixture (−) ([2]; 625 μg/Plate): 6 Colony/Plate
- Colony/Plate S-9 Mixture (+) ([2]; 1250 μg/Plate): 14 Colony/Plate
- Colony/Plate S-9 Mixture (−) ([2]; 1250 μg/Plate): 11 Colony/Plate
- Colony/Plate S-9 Mixture (+) ([2]; 2500 μg/Plate): 12 Colony/Plate
- Colony/Plate S-9 Mixture (−) ([2]; 2500 μg/Plate): 10 Colony/Plate
- Colony/Plate S-9 Mixture (+) ([2]; 5000 μg/Plate): 8 Colony/Plate
- Colony/Plate S-9 Mixture (−) ([2]; 5000 μg/Plate): 11 Colony/Plate
- Days for the test (death) Total ([3]; 5 mg/kg): 0/5
- Days for the test (death) Total ([3]; 10 mg/kg): 0/5
- Days for the Test (death) 3 ([3]; 25 mg/kg, day 3): 3
- Days for the Test (death) 4 ([3]; 25 mg/kg): 1
- Days for the test (death) Total ([3]; 25 mg/kg): 4/5
- Days for the test (death) 2 ([3]; 50 mg/kg, day 2): 3
- Days for the Test (death) 4 ([3]; 50 mg/kg): 1
- Days for the Test (death) 5 ([3]; 50 mg/kg, day 5): 1
- Days for the test (death) Total ([3]; 50 mg/kg): 5/5
- Colony/Plate S-9 Mixture (+) ([4]; TA1537, 317.5 μg/Plate): 20 Colony/Plate
- Colony/Plate S-9 Mixture (−) ([4]; TA1537, 317.5 μg/Plate): 17 Colony/Plate
- Colony/Plate S-9 Mixture (+) ([4]; TA1537, 625 μg/Plate): 18 Colony/Plate
- Colony/Plate S-9 Mixture (−) ([4]; TA1537, 625 μg/Plate): 14 Colony/Plate
- Colony/Plate S-9 Mixture (+) ([4]; TA1537, 1250 μg/Plate): 18 Colony/Plate
- Colony/Plate S-9 Mixture (−) ([4]; TA1537, 1250 μg/Plate): 10 Colony/Plate
- Colony/Plate S-9 Mixture (+) ([4]; TA1537, 2500 μg/Plate): 21 Colony/Plate
- Colony/Plate S-9 Mixture (−) ([4]; TA1537, 2500 μg/Plate): 8 Colony/Plate
- Colony/Plate S-9 Mixture (+) ([4]; TA1537, 5000 μg/Plate): 21 Colony/Plate
- Colony/Plate S-9 Mixture (−) ([4]; TA1537, 5000 μg/Plate): 9 Colony/Plate
- Colony/Plate S-9 Mixture (+) ([5]; TA98, 317.5 μg/Plate): 37 Colony/Plate
- Colony/Plate S-9 Mixture (−) ([5]; TA98, 317.5 μg/Plate): 29 Colony/Plate
- Colony/Plate S-9 Mixture (+) ([5]; TA98, 625 μg/Plate): 32 Colony/Plate
- Colony/Plate S-9 Mixture (−) ([5]; TA98, 625 μg/Plate): 29 Colony/Plate
- Colony/Plate S-9 Mixture (+) ([5]; TA98, 1250 μg/Plate): 33 Colony/Plate
- Colony/Plate S-9 Mixture (−) ([5]; TA98, 1250 μg/Plate): 29 Colony/Plate
- Colony/Plate S-9 Mixture (+) ([5]; TA98, 2500 μg/Plate): 37 Colony/Plate
- Colony/Plate S-9 Mixture (−) ([5]; TA98, 2500 μg/Plate): 24 Colony/Plate
- Colony/Plate S-9 Mixture (+) ([5]; TA98, 5000 μg/Plate): 28 Colony/Plate
- Colony/Plate S-9 Mixture (−) ([5]; TA98, 5000 μg/Plate): 26 Colony/Plate
- Colony/Plate S-9 Mixture (+) ([6]; TA100, 317.5 μg/Plate): 79 Colony/Plate
- Colony/Plate S-9 Mixture (−) ([6]; TA100, 317.5 μg/Plate): 115 Colony/Plate
- Colony/Plate S-9 Mixture (+) ([6]; TA100, 625 μg/Plate): 76 Colony/Plate
- Colony/Plate S-9 Mixture (−) ([6]; TA100, 625 μg/Plate): 110 Colony/Plate
- Colony/Plate S-9 Mixture (+) ([6]; TA100, 1250 μg/Plate): 100 Colony/Plate
- Colony/Plate S-9 Mixture (−) ([6]; TA100, 1250 μg/Plate): 112 Colony/Plate
- Colony/Plate S-9 Mixture (+) ([6]; TA100, 2500 μg/Plate): 91 Colony/Plate
- Colony/Plate S-9 Mixture (−) ([6]; TA100, 2500 μg/Plate): 115 Colony/Plate
- Colony/Plate S-9 Mixture (+) ([6]; TA100, 5000 μg/Plate): 78 Colony/Plate
- Colony/Plate S-9 Mixture (−) ([6]; TA100, 5000 μg/Plate): 108 Colony/Plate
- Colony/Plate S-9 Mixture (+) [7, 9]: 13 Colony/Plate
- Colony/Plate S-9 Mixture (−) [7, 9]: 18 Colony/Plate
- Colony/Plate S-9 Mixture (+) [7, 10]: 13 Colony/Plate
- Colony/Plate S-9 Mixture (−) [7, 10]: 15 Colony/Plate
- Colony/Plate S-9 Mixture (+) [7, 11]: 7 Colony/Plate
- Colony/Plate S-9 Mixture (−) [7, 11]: 17 Colony/Plate
- Colony/Plate S-9 Mixture (+) [7, 12]: 12 Colony/Plate
- Colony/Plate S-9 Mixture (−) [7, 12]: 17 Colony/Plate
- Colony/Plate S-9 Mixture (+) [7, 13]: 10 Colony/Plate
- Colony/Plate S-9 Mixture (−) [7, 13]: 13 Colony/Plate

SMILES: Nc1c2ccccc2nc2ccccc12 [Compound 9-AA, 9-aminoacridine]
- Colony/Plate S-9 Mixture (+) [4, 14]: 588 Colony/Plate
- Colony/Plate S-9 Mixture (−) [4, 14]: 175 Colony/Plate

SMILES: COc1cc2c(c(OC)c1OC)-c1ccc(SC)c(=O)cc1[C@@H](NC(=O)c1cccc(CCl)c1)CC2 [Compound 9]
- immunosuppressive effect [8]: good immunosuppressive effect

SMILES: COc1cc2c(c(OC)c1OC)-c1ccc(S(C)(=O)=O)c(=O)cc1C(NC(=O)CCCO[N+](=O)[O-])CC2 (stereo not drawn) [Compound 10, 4-nitrooxy-N-(1,2,3-trimethoxy-10-methylsulfonyl-9-oxo-5,6,7,9-tetrahydro-benzo[a]heptarene-7-yl)-butylamide]
- immunosuppressive effect ([8]; MLR, FIG. 1): good immunosuppressive effect

SMILES: COc1cc2c(c(OC)c1OC)-c1ccc(SC)c(=O)cc1[C@@H](NC(=O)c1ccc(CO[N+](=O)[O-])cc1)CC2 [Compound 11]
- immunosuppressive effect [8]: good immunosuppressive effect

SMILES: [N-]=[N+]=[N-] [Sodium azide, sodium azide]
- Colony/Plate S-9 Mixture (+) [6, 15]: 616 Colony/Plate
- Colony/Plate S-9 Mixture (−) [6, 15]: 453 Colony/Plate
- Colony/Plate S-9 Mixture (+) [7, 16]: 444 Colony/Plate
- Colony/Plate S-9 Mixture (−) [7, 16]: 279 Colony/Plate
